Tests used:
Format in all cases: cell-based, human
[1] = system: SW1990 pancreatic cancer cells; assay: MTS assay of SW1990 cultures, single 50 μM dose; settings: SW1990, 50 μM
Experimental: SW1990 pancreatic cancer cells […] were cultured in complete DMEM media containing 10% fetal bovine serum (FBS) and 1% penicillin-streptomycin, and 1% L-glutamine. BxPc-3 pancreatic cancer cells were cultured in complete RPMI media containing 10% fetal bovine serum (FBS), and 1% penicillin-streptomycin, 1% HEPES buffer, 1% sodium pyruvate and 1% L-glutamine. HPDE6-C7 cells were cultured in serum-free keratinocyte SFM media. All cells were maintained at 37° C. in a humidified incubator with 5% CO2. The cells were treated with a single 50 μM dose of vehicle (ethanol extracted olive oil), T3 alpha (alpha tocotrienol), T3 beta (beta tocotrienol), T3 gamma (gamma tocotrienol), T3 delta (delta tocotrienol), T alpha (alpha tocopherol), T beta (beta tocopherol), TS (tocopherol succinate), GG (geranylgeraniol), SA (succinic acid). A control culture (i.e., only vehicle with no treatment) was grown alongside the treatments for comparison. Cell viability was measured using MTS assay at preselect times of 24, 48, or 72 hours after treatment.

BXPC3 cells = assay: MTT assay of BXPC3 cultures, single 50 μM dose; design: MTT assay result, run 1 / MTT assay result, run 2 / MTT assay result, run 3 / MTT assay result, run 4 / MTT assay result, run 5 / MTT assay result, run 6 / MTT assay result, run 7 / MTT assay result, av (average) / MTT assay result, av-blank / MTT assay result, av: unit not given here; settings: BXPC3, 50 μM; for MTT assay result, av-blank: average minus blank
Experimental: BXPC3 cells were cultured in complete […] media containing 10% fetal bovine serum (FBS) and 1% penicillin-streptomycin, and 1% L-glutamine. BxPc-3 pancreatic cancer cells were cultured in complete RPMI media containing 10% fetal bovine serum (FBS), and 1% penicillin-streptomycin, 1% HEPES buffer, 1% sodium pyruvate and 1% L-glutamine HPDE6-C7 cells were cultured in serum-free keratinocyte SFM media. All cells were maintained at 37° C. in a humidified incubator with 5% CO2. The cells were treated with a single 50 μM dose of vehicle (vehicle only, may be a solvent), T3 alpha (alpha tocotrienol), T3 beta (beta tocotrienol), T3 gamma (gamma tocotrienol), T3 delta (delta tocotrienol), T alpha (alpha tocopherol), T beta (beta tocopherol), TS (tocopherol succinate), GG (geranylgeraniol), SA (succinic acid). A control (no treatment) culture was grown alongside the treatments for comparison. Cell viability was measured using MTT assay at preselect times of 48 or 120 hours after treatment.

MiaPaCa-2 cells = assay: MTT assay of MiaPaCa2 cultures, single 50 μM dose; design: rel amt (relative value set to the control): unit not given here; settings: MiaPaCa2, 50 μM; for MTT assay result, av-blank: average minus blank; for MTT assay result, av: average of 7 runs
Experimental: MiaPaCa-2, BxPc-3, and HPDE6-C7 cells were cultured as described above, and treated with a single 50 μM dose of vehicle (ethanol extracted olive oil), T3 alpha (alpha tocotrienol), T3 beta (beta tocotrienol), T3 gamma (gamma tocotrienol), T3 delta (delta tocotrienol), T alpha (alpha tocopherol), T beta (beta tocopherol), TS (tocopherol succinate), GG (geranylgeraniol), SA (succinic acid). A control culture (vehicle only with no treatment) was grown alongside the treatments for comparison. Cell viability was measured using MTT assay at preselect times of 48 or 120 hours after treatment.

Question: `CC(C)=CCC/C(C)=C/CC/C(C)=C/CC[C@]1(C)CCc2c(C)c(O)cc(C)c2O1` [T3 beta, beta tocotrienol] was tested. Which “rel amnt (relative value set to the control)” value ([1]; 24 hours) did it give?
Answer: The value was 99.

Question: And the “MTS assay result, run 1” value ([1]; 24 hours)?
Answer: Its value is 0.164.

Question: And the “MTS assay result, run 2” value ([1]; 24 hours)?
Answer: The value was 0.168.

Question: What about the “MTS assay result, run 3” value ([1]; 24 hours) of the same compound?
Answer: The value was 0.167.

Question: What about the “MTS assay result, run 4” value ([1]; 24 hours) of the same compound?
Answer: Its value is 0.123.

Question: And the “MTS assay result, run 5” value ([1]; 24 hours)?
Answer: The value was 0.138.

Question: And the “MTS assay result, run 6” value ([1]; 24 hours)?
Answer: Its value is 0.143.

Question: And the “MTS assay result, run 7” value ([1]; 24 hours)?
Answer: Its value is 0.126.

Question: What about the “MTS assay result, run 8” value ([1]; 24 hours) of the same compound?
Answer: Its value is 0.134.

Question: What about the “MTS assay result, run 9” value ([1]; 24 hours) of the same compound?
Answer: The value was 0.145.

Question: And the “rel amnt (relative value set to the control)” value ([1]; 48 hours)?
Answer: Its value is 68.

Question: What about the “MTS assay result, run 1” value ([1]; 48 hours) of the same compound?
Answer: Its value is 0.108.

Question: And the “MTS assay result, run 2” value ([1]; 48 hours)?
Answer: The value was 0.093.

Question: What about the “MTS assay result, run 3” value ([1]; 48 hours) of the same compound?
Answer: Its value is 0.09.

Question: What about the “MTS assay result, run 4” value ([1]; 48 hours) of the same compound?
Answer: Its value is 0.104.

Question: And the “MTS assay result, run 5” value ([1]; 48 hours)?
Answer: The value was 0.109.

Question: And the “MTS assay result, run 6” value ([1]; 48 hours)?
Answer: Its value is 0.117.

Question: What about the “MTS assay result, run 7” value ([1]; 48 hours) of the same compound?
Answer: Its value is 0.1.

Question: What about the “MTS assay result, run 8” value ([1]; 48 hours) of the same compound?
Answer: The value was 0.102.

Question: And the “MTS assay result, run 9” value ([1]; 48 hours)?
Answer: Its value is 0.104.

Question: And the “rel amnt (relative value set to the control)” value ([1]; 72 hours)?
Answer: Its value is 69.

Question: What about the “MTS assay result, run 1” value ([1]; 72 hours) of the same compound?
Answer: Its value is 0.349.

Question: And the “MTS assay result, run 2” value ([1]; 72 hours)?
Answer: Its value is 0.316.

Question: And the “MTS assay result, run 3” value ([1]; 72 hours)?
Answer: Its value is 0.33.

Question: And the “MTS assay result, run 4” value ([1]; 72 hours)?
Answer: Its value is 0.298.

Question: What about the “MTS assay result, run 5” value ([1]; 72 hours) of the same compound?
Answer: The value was 0.323.

Question: And the “MTS assay result, run 6” value ([1]; 72 hours)?
Answer: The value was 0.287.

Question: What about the “MTS assay result, run 7” value ([1]; 72 hours) of the same compound?
Answer: Its value is 0.28.

Question: And the “MTS assay result, run 8” value ([1]; 72 hours)?
Answer: Its value is 0.275.

Question: And the “MTS assay result, run 9” value ([1]; 72 hours)?
Answer: The value was 0.307.

Question: What about the “rel amt (relative value set to the control)” value (BXPC3 cells; 48 hours) of the same compound?
Answer: Its value is 95.

Question: And the “MTT assay result, av-blank” value (BXPC3 cells; 48 hours)?
Answer: Its value is 0.216.

Question: And the “MTT assay result, av (average)” value (BXPC3 cells; 48 hours, average of 7 runs)?
Answer: The value was 0.265.

Question: What about the “MTT assay result, run 1” value (BXPC3 cells; 48 hours) of the same compound?
Answer: The value was 0.263.

Question: And the “MTT assay result, run 2” value (BXPC3 cells; 48 hours)?
Answer: The value was 0.261.

Question: What about the “MTT assay result, run 3” value (BXPC3 cells; 48 hours) of the same compound?
Answer: Its value is 0.27.

Question: And the “MTT assay result, run 4” value (BXPC3 cells; 48 hours)?
Answer: Its value is 0.254.

Question: And the “MTT assay result, run 5” value (BXPC3 cells; 48 hours)?
Answer: The value was 0.278.

Question: And the “MTT assay result, run 6” value (BXPC3 cells; 48 hours)?
Answer: Its value is 0.255.

Question: And the “MTT assay result, run 7” value (BXPC3 cells; 48 hours)?
Answer: The value was 0.274.

Question: And the “rel amt (relative value set to the control)” value (BXPC3 cells; 120 hours (5 days))?
Answer: Its value is 72.

Question: And the “MTT assay result, av-blank” value (BXPC3 cells; 120 hours (5 days))?
Answer: Its value is 0.417.

Question: And the “MTT assay result, av” value (BXPC3 cells; 120 hours (5 days), average of 7 runs)?
Answer: The value was 0.472.

Question: And the “MTT assay result, run 1” value (BXPC3 cells; 120 hours (5 days))?
Answer: Its value is 0.468.

Question: What about the “MTT assay result, run 2” value (BXPC3 cells; 120 hours (5 days)) of the same compound?
Answer: The value was 0.512.

Question: What about the “MTT assay result, run 3” value (BXPC3 cells; 120 hours (5 days)) of the same compound?
Answer: Its value is 0.495.

Question: What about the “MTT assay result, run 4” value (BXPC3 cells; 120 hours (5 days)) of the same compound?
Answer: The value was 0.481.

Question: What about the “MTT assay result, run 5” value (BXPC3 cells; 120 hours (5 days)) of the same compound?
Answer: The value was 0.457.

Question: And the “MTT assay result, run 6” value (BXPC3 cells; 120 hours (5 days))?
Answer: The value was 0.483.

Question: What about the “MTT assay result, run 7” value (BXPC3 cells; 120 hours (5 days)) of the same compound?
Answer: Its value is 0.411.

Question: What about the “rel amt (relative value set to the control)” value (MiaPaCa-2 cells; 48 hours) of the same compound?
Answer: The value was 62.

Question: What about the “MTT assay result, av-blank” value (MiaPaCa-2 cells; 48 hours) of the same compound?
Answer: The value was 0.193.

Question: What about the “MTT assay result, av” value (MiaPaCa-2 cells; 48 hours) of the same compound?
Answer: Its value is 0.239.

Question: And the “MTT assay result, run 1” value (MiaPaCa-2 cells; 48 hours)?
Answer: The value was 0.272.

Question: And the “MTT assay result, run 2” value (MiaPaCa-2 cells; 48 hours)?
Answer: Its value is 0.235.

Question: And the “MTT assay result, run 3” value (MiaPaCa-2 cells; 48 hours)?
Answer: The value was 0.233.

Question: And the “MTT assay result, run 4” value (MiaPaCa-2 cells; 48 hours)?
Answer: The value was 0.226.

Question: What about the “MTT assay result, run 5” value (MiaPaCa-2 cells; 48 hours) of the same compound?
Answer: Its value is 0.252.

Question: And the “MTT assay result, run 6” value (MiaPaCa-2 cells; 48 hours)?
Answer: Its value is 0.219.

Question: What about the “MTT assay result, run 7” value (MiaPaCa-2 cells; 48 hours) of the same compound?
Answer: Its value is 0.239.

Question: What about the “rel amt (relative value set to the control)” value (MiaPaCa-2 cells; 120 hours (5 days)) of the same compound?
Answer: Its value is 53.

Question: And the “MTT assay result, av-blank” value (MiaPaCa-2 cells; 120 hours (5 days))?
Answer: The value was 0.966.

Question: And the “MTT assay result, av” value (MiaPaCa-2 cells; 120 hours (5 days))?
Answer: The value was 1.018.

Question: And the “MTT assay result, run 1” value (MiaPaCa-2 cells; 120 hours (5 days))?
Answer: The value was 0.97.

Question: And the “MTT assay result, run 2” value (MiaPaCa-2 cells; 120 hours (5 days))?
Answer: The value was 0.781.

Question: What about the “MTT assay result, run 3” value (MiaPaCa-2 cells; 120 hours (5 days)) of the same compound?
Answer: The value was 0.977.

Question: And the “MTT assay result, run 4” value (MiaPaCa-2 cells; 120 hours (5 days))?
Answer: The value was 1.154.

Question: What about the “MTT assay result, run 5” value (MiaPaCa-2 cells; 120 hours (5 days)) of the same compound?
Answer: Its value is 1.408.

Question: And the “MTT assay result, run 6” value (MiaPaCa-2 cells; 120 hours (5 days))?
Answer: Its value is 0.944.

Question: And the “MTT assay result, run 7” value (MiaPaCa-2 cells; 120 hours (5 days))?
Answer: Its value is 0.891.

From patent US8846653B2, “Delta-tocotrienol treatment and prevention of pancreatic cancer” (University of South Florida, priority 2006, dated 2014)
